The values that follow come from article PMC11696576, “Next generation thiazolyl ketone inhibitors of cytosolic phospholipase A2 α for targeted cancer therapy” (Nature Communications, 2025).

SMILES strings stand for the structures. Values joined by “and” are separate entries in the source; they are usually repeats but may differ in a detail not shown here. Identical values can stand only once. Like-named read-outs stand apart in the source and are kept apart here. Marks after values point to notes of the source that are not given here.

The nature of series [1]: stability in human plasma (LC-MS/MS). Format: in vitro ADME. As to conditions: for Stability in human plasma 4 h: % of the compound remaining after 4 h. On the procedure: The stability of the analogs in human plasma was studied over approximately 24 h by LC-MS/MS and the results at 4 h and the final timepoint (20–25 h) are included in Table 1.
The metabolic stability of the compounds was determined through in vitro stability assays in human plasma. Solutions of compounds in DMSO (20 mM) were diluted to 5 μg/mL in 50% methanol for infusion into the MS/MS system and spiking of calibration standards and control samples. For the MS detection, positive ionization in ESI mode was used. Good sensitivity, retention and peak shaped were achieved using a gradient with 5 mM ammonium carbamate in water and ammonium carbamate in 90% acetonitrile on a reversed phase column (ACE3AQ). Calibration standards were spiked in a calibration range of 0.5–100 ng/ml. Control samples were spiked at, low, medium, and high concentration levels. The spiked plasma samples were prepared by protein precipitation using acetonitrile containing appropriate internal standard (IS). […] Samples were prepared for analysis by taking 50 μL of plasma sample and adding 100 μL of IS working solution in acetonitrile followed by vortexing at 2500 rpm (Multi-tube vortexer DVX-2500, Henry Troemner LLC, USA) for 2 min. The samples were centrifuged at 5300 rpm (Heraeus Megafuge 1.0 Heraeus, Germany) for 3 min and the supernatant transferred to the autosampler. Recovery was determined by comparing the prepared matrix samples (protein precipitation) with a direct sample (analytes spikes in 67% acetonitrile = injection solution) such that the recovery of the sample preparation and the matrix effects were determined together. Two or three samples were each measured in technical triplicates to give the final % recovery.

For series [2], the system named is SW982 synoviocytes. In words: cellular arachidonic acid (AA) release assay, IL-1β stimulated. Format: cell-based, human. The settings on record: for inhibition at 1 µM / inhibition at 5 µM / EC50 / IC50: Homo sapiens; for inhibition at 5 µM: SW982, 5 µM; for EC50 / IC50: SW982; for IC50: concentration in µM, read-out: logEC50 best-fit value, AA release (converted). The text has this:
To test the inhibitory activity of the compounds in cells, we measured their effect on the release of AA from synoviocytes stimulated with IL-1β (Table 2). […] Combined with favorable selectivity and stability it was thus chosen for further evaluation. We looked specifically at how it modulated eicosanoid levels in response to stimulation both in whole blood and in isolated peripheral blood mononuclear cells (PBMCs) and checked for off-target effects on AA metabolism in whole blood by also measuring the effect of GK420 on eicosanoid release in the presence of exogenous free AA.
The human synovial sarcoma cell line SW982 (ATCC, London, UK) was used to measure AA release. The cells were maintained in Dulbecco’s Modified Eagle Medium (DMEM) supplemented with 10% FBS, 0.1 mg/mL gentamicin, and 0.3 mg/mL L-glutamine at 37 °C with 10% CO2, and experiments were performed at 3 days post-confluence. To measure AA release, the cells were labeled overnight with ^3H-AA (0.4 μCi/mL) in serum-free DMEM and then washed twice with PBS containing fBSA (2 mg/mL) to remove unincorporated radioactivity. The inhibitors, or DMSO vehicle control, were subsequently added to the cells for 1 hour prior to stimulation with 10 ng/mL IL-1β for 4 h. Supernatants were collected and centrifuged at 300 × g for 5 min to clear them of detached cells and adherent cells were dissolved in 1 N NaOH. The ^3H-AA was assessed by liquid scintillation counting (LS 6500 Multi-Purpose Scintillation Counter, Beckman Coulter, Inc., USA) and the results are given as the inhibition of released ^3H-AA in the supernatants relative to total ^3H-AA incorporated into the cells, as described. EC50 values were calculated by fitting the % inhibition data to a three-parameter dose-response curve in GraphPad prism v10.4.0. Experiments were performed in technical triplicates and repeated at least three times.

Series [3] addresses T1, human calcium-independent GVIA iPLA2 (Homo sapiens, UniProt O60733).
T1 sequence (O60733 1-806): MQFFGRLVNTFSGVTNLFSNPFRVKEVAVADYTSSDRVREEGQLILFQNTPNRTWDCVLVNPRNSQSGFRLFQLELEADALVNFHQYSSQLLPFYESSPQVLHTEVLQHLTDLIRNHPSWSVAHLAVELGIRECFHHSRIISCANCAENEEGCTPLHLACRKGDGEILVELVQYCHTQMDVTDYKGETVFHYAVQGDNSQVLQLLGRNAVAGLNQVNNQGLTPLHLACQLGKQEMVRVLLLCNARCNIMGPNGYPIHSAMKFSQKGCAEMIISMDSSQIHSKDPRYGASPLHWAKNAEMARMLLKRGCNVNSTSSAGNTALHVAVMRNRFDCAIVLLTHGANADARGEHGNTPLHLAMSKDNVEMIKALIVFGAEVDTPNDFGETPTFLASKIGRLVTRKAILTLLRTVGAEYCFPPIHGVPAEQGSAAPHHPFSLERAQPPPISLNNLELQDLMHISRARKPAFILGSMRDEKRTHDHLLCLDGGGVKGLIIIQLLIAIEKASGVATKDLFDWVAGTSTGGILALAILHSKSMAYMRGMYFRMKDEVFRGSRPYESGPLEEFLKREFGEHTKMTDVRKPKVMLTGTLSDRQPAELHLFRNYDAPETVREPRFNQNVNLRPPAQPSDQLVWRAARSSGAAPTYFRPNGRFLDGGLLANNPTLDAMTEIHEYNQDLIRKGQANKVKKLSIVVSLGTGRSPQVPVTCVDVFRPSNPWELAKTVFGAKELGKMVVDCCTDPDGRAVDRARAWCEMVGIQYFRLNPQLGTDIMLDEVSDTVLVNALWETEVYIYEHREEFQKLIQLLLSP
In words: radioactivity-based mixed micelle assay, GVIA iPLA2. The class given is biochemical. As to the method: All synthesized thiazolyl ketones were tested for their in vitro inhibitory activity on recombinant human cPLA2α and selectivity over human calcium-independent GVIA iPLA2 and secreted GV sPLA2 using our previously described group-specific radioactivity-based mixed micelle assays. The inhibition results are presented either as per cent inhibition or as XI(50) values in Table 1. […] The XI(50) is defined as the mole fraction of the inhibitor in the total substrate interface required to inhibit the enzyme activity by 50%. For comparison purposes, previously published data for the inhibitor GK470[19] are included. […] Inhibitors were initially screened at 0.091 mol fraction (5 μL of 5 mM inhibitor in DMSO) in substrate (495 μL) in technical triplicates. […] The XI(50) value and stdev values reported are for the entire curve. This analysis was performed in GraphPad Prism v6.

Where [4] appears, read: individual sample, human plasma.
[5] abbreviates: 0.2 µM, individual biological replicate.
[6] abbreviates: 1 µM, individual biological replicate.
[7] abbreviates: 5 µM, individual biological replicate.
The mark [8] stands for this setting: SW982, 1 µM, individual biological replicate, read-out: % inhibition of stimulated AA release.
Setting [9] is: individual biological replicate.
[10] abbreviates: SW982, 4 h, 1 µM inhibitor, IL-1β 4 h, mean ± stdev, read-out: AA release % Inhib.
The mark [11] stands for this setting: IL-1β 4 h, 0.2, 1 or 5 µM inhibitor, read-out: AA release EC50 µM (95% CI).
[12] abbreviates: [Agonist] vs. Response (three parameters).
Setting [13] is: [Agonist] vs. Response (three parameters), read-out: EC50 best-fit value, AA release.
[14] abbreviates: 0.091 mole fraction, read-out: GVIA iPLA2 % Inhib.
[15] abbreviates: average of triplicates, read-out: iPLA2 % inhibition at 0.091 mole fraction, average.
The mark [16] stands for this setting: individual technical replicate, read-out: iPLA2 % inhibition at 0.091 mole fraction.

`CCCCCCCCc1ccc(OCC(=O)c2nc(C(=O)OCC)cs2)cc1` [GK401]: the “Stability in human plasma 4 h” value in series [1] is 69.3%. Also, the “Stability in human plasma 20+ h” value in series [1] (% of the compound remaining after 25 h (¤)) is given as 16.25¤ %. Further, the “plasma stability 4h (%)” value in series [1] (setting [4]) was 65.9% and 74% and 67.2%. Further, the “plasma stability 25h (%)” value in series [1] (setting [4]) is 16.8% and 15.7%. Moreover, the “% inhibition of stimulated AA release” value is 23.49% and 44.31% and 23.09% and 42.93% in series [2] (setting [5]); 46.19% and 56.11% and 60.73% in series [2] (setting [6]); 83.12% and 89.8% and 99.4% in series [2] (setting [7]). Also, the inhibition at 1 µM in series [2] (setting [8]) turned out to be 49.8%; in series [2] (setting [10]), 53 ± 6%. Moreover, in series [2] (setting [9]), the inhibition at 5 µM amounted to 92.1%. Further, the EC50 in series [2] (setting [11]) and in series [2] (setting [13]) was 0.63 µM throughout. In series [2] (setting [12]), the IC50 was 0.63 µM. The inhibition at 0.091 mole fraction turned out to be 40% in series [3] (setting [14]), 39.8% in series [3] (setting [15]) and 41.2% in series [3] (setting [16]).
As to `COC(=O)c1csc(C(=O)COc2ccc(Oc3ccccc3)cc2)n1` [GK403], in series [1], the “Stability in human plasma 4 h” value is on record as 21.5%. Further, the “plasma stability 4h (%)” value in series [1] (setting [4]) is 32.3% and 10.6%. In addition, the “% inhibition of stimulated AA release” value in series [2] (setting [5]) is 11.19% and -0.79% and 22.56% and 22.92%; in series [2] (setting [6]) it was 71.06% and 44.35% and 48.83% and 61.77%; in series [2] (setting [7]) it was 83.19% and 96.79% and 91.92%. In series [2] (setting [9]), the inhibition at 5 µM turned out to be 101%. Moreover, in series [2] (setting [10]), the inhibition at 1 µM worked out at 57 ± 12%. The results for the EC50 in series [2] (setting [11]) and in series [2] (setting [13]) were 0.79 µM and 0.793 µM, respectively. In addition, the IC50 in series [2] (setting [12]) is 0.793 µM. In addition, the inhibition at 0.091 mole fraction is 34% in series [3] (setting [14]), 34.3% in series [3] (setting [15]) and 33.6% in series [3] (setting [16]).
In the case of `CCCCCCSc1ccc(OC(C)C(=O)c2nc(C(=O)OC)cs2)cc1` (stereo not shown) [GK449], in series [1], the “Stability in human plasma 4 h” value worked out at 63%. In addition, the “Stability in human plasma 20+ h” value in series [1] (% of the compound remaining after 24 h 39 min (*)) is on record as 18.35* %. The “plasma stability 24h39min (%)” value in series [1] (setting [4]) was 16.1% and 20.6%. Moreover, the “plasma stability 4h (%)” value in series [1] (setting [4]) is 58.4% and 67.6%. The “% inhibition of stimulated AA release” value in series [2] (setting [5]) was 16.56% and 7.46% and 9.46% and 46.5%; in series [2] (setting [6]), 47.16% and 43.5% and 67.91% and 74.94%; in series [2] (setting [7]), 92.05% and 77.81% and 56.83% and 101.84%. Moreover, the inhibition at 1 µM in series [2] (setting [10]) worked out at 58 ± 15%. Moreover, the EC50 in series [2] (setting [11]) was determined as 0.78 µM; in series [2] (setting [13]), 0.783 µM. Moreover, the IC50 in series [2] (setting [12]) was 0.783 µM. In addition, the inhibition at 0.091 mole fraction in series [3] (setting [14]) was 67%; in series [3] (setting [15]), 67.1%; in series [3] (setting [16]), 73.4%.
In the case of `CCCCCCCCc1ccc(OCC(=O)c2nc(C(=O)OC)cs2)cc1` [GK470], the “Stability in human plasma 4 h” value in series [1] was 60.6%. Further, in series [1] (setting [4]), the “plasma stability 4h (%)” value is 58.2% and 63% and 60.5%. Moreover, the “plasma stability 25h (%)” value in series [1] (setting [4]) is 10.5% and 10.6%. Moreover, the “% inhibition of stimulated AA release” value in series [2] (setting [5]) was 11.2% and 24.55% and 57.46% and 50.18%; in series [2] (setting [6]) it was 71.51% and 64.93% and 67.46%; in series [2] (setting [7]), 105% and 107.21% and 94.17%. In addition, the inhibition at 1 µM in series [2] (setting [8]) stood at 62.7%; in series [2] (setting [10]) it was 67 ± 4%. Further, the inhibition at 5 µM in series [2] (setting [9]) was determined as 110%. Besides, the EC50 was 0.38 µM in series [2] (setting [11]) and 0.385 µM in series [2] (setting [13]). In series [2] (setting [12]), the IC50 is 0.385 µM.

As a reminder, the EC50 is the concentration needed to bring the measured effect to its halfway point.
